Converted amounts (≈) assume the structure as drawn.
Tests used:
Assay in all cases: ≥ marks a high value that may be exact or a test limit, other limits are often not marked, values filed in µg/mL are converted to µM
[1] = system: Staphylococcus aureus ATCC 25923
[2] = system: Escherichia coli ATCC 25922
[3] = system: Stenotrophomonas maltophilia CUN 3998-00
[4] = system: Acinetobacter baumannii ATCC 19606
[5] = system: Staphylococcus aureus ATCC 43300
[6] = system: Staphylococcus aureus CUN 3792-99
[7] = system: Pseudomonas aeruginosa ATCC 27853
[8] = system: Bordetella bronchiseptica CUN 11844-99
[9] = system: Pseudomonas aeruginosa CUN 4158-02
Streptococcus mutans = system: Streptococcus mutans
Pseudomonas putida = system: Pseudomonas putida
Cryptococcus neoformans = system: Cryptococcus neoformans
Saccharomyces cerevisiae = system: Saccharomyces cerevisiae
Serratia marcescens = system: Serratia marcescens
Candida albicans = system: Candida albicans
Bacillus subtilis = system: Bacillus subtilis
Streptococcus pneumoniae = system: Streptococcus pneumoniae
Staphylococcus aureus = system: Staphylococcus aureus
Escherichia coli = system: Escherichia coli
Salmonella typhimurium = system: Salmonella typhimurium
Micrococcus luteus = system: Micrococcus luteus
[10] = system: Escherichia coli IFO 12734
Listeria innocua = system: Listeria innocua
Streptococcus uberis = system: Streptococcus uberis
[11] = system: Staphylococcus aureus IFO 12732
Enterococcus faecalis = system: Enterococcus faecalis
Pasteurella multocida = system: Pasteurella multocida
Leuconostoc lactis = system: Leuconostoc lactis
[12] = system: Bacillus subtilis IFO 3134
[13] = system: Staphylococcus epidermidis
Bacillus cereus = system: Bacillus cereus
[14] = system: Pseudomonas aeruginosa IFO 12582
[15] = system: Staphylococcus aureus AS1.72
Bacillus cereus AS1.126 = system: Bacillus cereus AS1.126
Escherichia coli AS1.349 = system: Escherichia coli AS1.349
[16] = system: Lactococcus lactis AS1.1690
[17] = system: Enterobacter cloacae CGMCC 1.58
[18] = system: Enterococcus faecium CGMCC 1.2334
[19] = system: Klebsiella aerogenes CGMCC 1.876
[20] = system: Klebsiella pneumoniae subsp. pneumoniae CGMCC 1.176
[21] = system: Enterococcus faecalis CGMCC 1.595
[22] = system: Pseudomonas aeruginosa CGMCC 1.860

| SMILES | MIC [1] [µM] | MIC [2] [µM] | MIC [3] [µM] | MIC [4] [µM] | MIC [5] [µM] | MIC [6] [µM] | MIC [7] [µM] | MIC [8] [µM] | MIC [9] [µM] | MIC (Staphylococcus aureus) [µM] | MIC (Escherichia coli) [µM] | MIC (Micrococcus luteus) [µM] | MIC [10] [µM] | MIC (Listeria innocua) [µM] | MIC (Streptococcus uberis) [µM] | MIC [11] [µM] | MIC (Enterococcus faecalis) [µM] | MIC (Pasteurella multocida) [µM] | MIC (Leuconostoc lactis) [µM] | MIC [12] [µM] | also measured |
| --- | --- | --- | --- | --- | --- | --- | --- | --- | --- | --- | --- | --- | --- | --- | --- | --- | --- | --- | --- | --- | --- |
| CC(C)C[C@H](NC(=O)[C@H](Cc1c[nH]c2ccccc12)NC(=O)[C@H](CC(C)C)NC(=O)[C@H](CCCCN)NC(=O)[C@H](CCC(N)=O)NC(=O)[C@H](CCCCN)NC(=O)[C@H](CS)NC(=O)[C@H](CCCCN)NC(=O)[C@H](CC(C)C)NC(=O)[C@H](CCCCN)NC(=O)[C@H](Cc1ccccc1)NC(=O)[C@H](CCCNC(=N)N)NC(=O)[C@H](CCCNC(=N)N)NC(=O)[C@H](Cc1ccccc1)NC(=O)[C@H](CCCCN)NC(=O)[C@H](CCCCN)NC(=O)[C@H](CS)NC(=O)CN)C(=O)N[C@@H](Cc1c[nH]c2ccccc12)C(=O)N[C@@H](CS)C(=O)NCC(=O)O [GCKKFRRFKLKCKQKLWLWCG] | 385 (≈ 1020 µg/mL) | 385 (≈ 1020 µg/mL) | ≥ 385 | 24.1 (≈ 64 µg/mL) | 24.1 (≈ 64 µg/mL) | 12 (≈ 32 µg/mL) | 96.3 (≈ 256 µg/mL) | 6.02 (≈ 16 µg/mL) | ≥ 96.3 | – | – | – | – | – | – | – | – | – | – | – | – |
| CC(C)C[C@H](NC(=O)[C@H](CC(C)C)NC(=O)[C@H](CCCN=C(N)N)NC(=O)[C@H](Cc1cnc[nH]1)NC(=O)[C@@H](NC(=O)[C@H](CCCN=C(N)N)NC(=O)CNC(=O)[C@@H](NC(=O)[C@@H]1CCCN1C(=O)[C@H](Cc1ccccc1)NC(=O)[C@H](CCC(N)=O)NC(=O)[C@H](CC(C)C)NC(=O)CNC(=O)[C@H](C)NC(=O)[C@@H](N)CCCN=C(N)N)C(C)C)C(C)C)C(=O)O [RAGLQFPVGRVHRLL] | – | – | – | – | – | – | – | – | – | 74.5 (≈ 128 µg/mL) | 37.2 (≈ 64 µg/mL) | – | – | – | – | – | – | – | – | – | MIC (Streptococcus mutans): ≥ 37.2 µM; MIC (Pseudomonas putida): ≥ 37.2 µM; MIC (Cryptococcus neoformans): ≥ 74.5 µM; MIC (Saccharomyces cerevisiae): ≥ 149 µM; MIC (Serratia marcescens): ≥ 37.2 µM; MIC (Candida albicans): > 149 µM; MIC (Bacillus subtilis): ≥ 37.2 µM; MIC (Streptococcus pneumoniae): ≥ 74.5 µM; MIC (Salmonella typhimurium): 18.6 µM (≈ 32 µg/mL) |
| CC[C@H](C)[C@H](N=C(O)[C@H](C)N=C(O)[C@H](C)N=C(O)[C@@H](N=C(O)[C@@H](N=C(O)[C@H](Cc1cnc[nH]1)N=C(O)[C@H](C)N=C(O)[C@H](C)N=C(O)[C@@H](N=C(O)[C@H](CCCCN)N=C(O)[C@H](C)N=C(O)[C@H](CC(C)C)N=C(O)[C@@H](N=C(O)CN=C(O)[C@H](Cc1ccccc1)N=C(O)[C@H](CC(C)C)N=C(O)CN)C(C)C)C(C)C)C(C)C)C(C)C)C(O)=N[C@@H](C)C(O)=N[C@@H](CCC(=O)O)C(O)=N[C@@H](Cc1cnc[nH]1)C(O)=N[C@@H](Cc1ccccc1)C(=N)O [GLFGVLAKVAAHVVAAIAEHF] | – | – | – | – | – | – | – | – | – | 33.3 (≈ 70.7 µg/mL) | > 47.2 | 23.6 (≈ 50 µg/mL) | ≥ 64 | ≥ 47.2 | 23.6 (≈ 50 µg/mL) | 4 (≈ 8.48 µg/mL) | ≥ 47.2 | ≥ 47.2 | 5.66 (≈ 12 µg/mL) | 8 (≈ 17 µg/mL) | MIC [13]: ≥ 47.2 µM; MIC (Bacillus cereus): ≥ 47.2 µM; MIC [14]: ≥ 64 µM |
| CC[C@H](C)[C@H](NC(=O)[C@H](C)NC(=O)[C@@H]1CCCN1C(=O)[C@@H](NC(=O)[C@@H](NC(=O)[C@H](Cc1cnc[nH]1)NC(=O)[C@H](C)NC(=O)[C@H](C)NC(=O)[C@@H](NC(=O)[C@H](CCCCN)NC(=O)[C@H](C)NC(=O)[C@H](CC(C)C)NC(=O)[C@@H](NC(=O)CNC(=O)[C@@H](N)Cc1ccccc1)C(C)C)C(C)C)C(C)C)C(C)C)C(=O)N[C@@H](C)C(=O)N[C@@H](CCC(=O)O)C(=O)N[C@@H](Cc1cnc[nH]1)C(=O)N[C@@H](Cc1ccccc1)C(N)=O [FGVLAKVAAHVVPAIAEHF] | – | – | – | – | – | – | – | – | – | – | > 50.6 | ≥ 50.6 | ≥ 64 | ≥ 50.6 | ≥ 50.6 | ≥ 64 | ≥ 50.6 | ≥ 50.6 | ≥ 50.6 | ≥ 64 | MIC [13]: ≥ 50.6 µM; MIC (Bacillus cereus): ≥ 50.6 µM; MIC [14]: ≥ 64 µM |
| NCCCC[C@H](NC(=O)CNC(=O)[C@H](CCCCN)NC(=O)[C@H](Cc1ccccc1)NC(=O)[C@H](CCCCN)NC(=O)[C@H](Cc1c[nH]c2ccccc12)NC(=O)[C@H](CCCN=C(N)N)NC(=O)[C@H](Cc1ccccc1)NC(=O)[C@H](CCCN=C(N)N)NC(=O)[C@H](CCCN=C(N)N)NC(=O)[C@H](Cc1ccc(O)cc1)NC(=O)[C@H](CCCCN)NC(=O)[C@H](CCCCN)NC(=O)[C@H](CS)NC(=O)CN)C(=O)N[C@@H](Cc1ccccc1)C(=O)N[C@@H](Cc1c[nH]c2ccccc12)C(=O)N[C@@H](Cc1ccccc1)C(=O)N[C@@H](Cc1c[nH]c2ccccc12)C(=O)NCC(=O)NCC(N)=O [GCKKYRRFRWKFKGKFWFWGG] | 46.2 (≈ 128 µg/mL) | 46.2 (≈ 128 µg/mL) | ≥ 185 | 23.1 (≈ 64 µg/mL) | 46.2 (≈ 128 µg/mL) | ≥ 370 | 46.2 (≈ 128 µg/mL) | 11.6 (≈ 32 µg/mL) | ≥ 92.4 | – | – | – | – | – | – | – | – | – | – | – | – |
| CC[C@H](C)[C@H](N)C(=O)N[C@@H](CCCCN)C(=O)N[C@@H](CCCCN)C(=O)N[C@H](C(=O)N[C@@H](CC(C)C)C(=O)N[C@@H](CO)C(=O)N[C@@H](CCCCN)C(=O)N[C@H](C(=O)N[C@@H](CCCCN)C(=O)N[C@@H](CCCCN)C(=O)N[C@@H](CC(C)C)C(=O)N[C@@H](CC(C)C)C(N)=O)[C@@H](C)CC)[C@@H](C)CC [IKKILSKIKKLL] | – | – | – | – | – | – | – | – | – | – | – | – | – | – | – | – | – | – | – | – | MIC [15]: 3.12 µM (≈ 4.44 µg/mL); MIC (Bacillus cereus AS1.126): 3.12 µM (≈ 4.44 µg/mL); MIC (Escherichia coli AS1.349): 3.12 µM (≈ 4.44 µg/mL); MIC [16]: 3.12 µM (≈ 4.44 µg/mL); MIC [17]: 6.25 µM (≈ 8.9 µg/mL); MIC [18]: 6.25 µM (≈ 8.9 µg/mL); MIC [19]: 6.25 µM (≈ 8.9 µg/mL); MIC [20]: 6.25 µM (≈ 8.9 µg/mL); MIC [21]: 6.25 µM (≈ 8.9 µg/mL); MIC [22]: 3.12 µM (≈ 4.44 µg/mL) |
